{
  "source": "patent US11746103B2",
  "about": "“ALK-5 inhibitors and uses thereof” (Sumitomo Pharma Oncology, Inc., priority 2020, dated 2023)",
  "key": {"EMT6 tumors [1]": {"tested_on": "EMT6 tumors", "test": "Combination of EX-11 and abraxane in EMT6 TNBC syngeneic model", "format": "in vivo, mouse", "conditions": "abraxane 30 mg/kg IP Q7d; EX-11 150 mg/kg PO BID", "source_text": "Abraxane (product of Bristol Myers Squibb) was purchased from St Josef Hospital (Freiburg, Germany). The vehicle for abraxane was 0.9% NaCl."}, "[2]": {"tested_on": "antigen presentation pathway (APP)", "test": "Nanostring differential gene expression analyses of 4T1, EMT6 and S91 tumors", "format": "in vivo, mouse", "conditions": "4T1, EMT6, S91 tumors", "source_text": "The objective of this study was to determine the differential gene expression (DGE) patterns of 4T1, EMT6, and S91 tumors treated with EX-11+immune checkpoint inhibitor (ICI), EX-11 alone, ICI alone, or vehicle control. For the purpose of this study, ICI=anti-PD-1 or anti-PD-L1, as indicated.\nFor NanoString assays, tumors from three syngeneic models of cancer were used:\nRNA was isolated from the frozen tumors of ≥3 mice per group using the Direct-Zol RNA Miniprep (Zymo Research). The treatment arms and number of mice/tumors used for downstream applications is outlined in Table 17 (R=Responder, NS=Non-responder).\nEqual concentrations of RNA for each tumor within each group were pooled. Two-hundred ng of RNA per group was used for downstream applications. Three separate NanoString nCounter panels were used per protocol: 1) Fibrosis, 2) PanCancer Pathways, 3) Immunology. RCC raw data files were uploaded into nCounter 4.0 software where counts were normalized to housekeeping genes. Gene lists in each panel were combined into a single spreadsheet for downstream analyses. For genes found in […], mean count values were used. RStudio software was used to generate heat maps of DGE signatures within each study for each group. Ingenuity Pathway Analysis (IPA) was used to identify the dysregulated signaling pathways within each study for each group."}, "[3]": {"tested_on": "bleomycin-induced lung fibrosis", "test": "Bleomycin-induced lung fibrosis study", "format": "in vivo, mouse", "source_text": "Fibrosis, the formation of excess connective tissue causing stromal hardening and scar formation is a hallmark of cancer. Up to 20% of cancers are linked to chronic, inflammation-related fibrosis, including hepatocellular, gastric, esophageal, head and neck, colon, pancreatic, cervix, and vulvar cancers. The contribution of fibrosis for early cancer development remains unclear; however, in some advanced solid tumors it is believed that fibrotic tissues act like a barrier, preventing therapeutic agents like chemotherapy or biologics from penetrating the tumor tissue. Additionally, strong fibrotic tissue is thought to contribute to excluding immune cells from entering the tumor core, creating immune excluded or immune desert phenotypes. To evaluate the anti-fibrotic properties of Ex-11, a prophylactic model of bleomycin-induced lung fibrosis in male C57BL/6 mice was utilized, and various endpoints evaluated.\nAll mice in this study were 8-week-old male C57BL/6 mice purchased from Taconic. On Day −2 prior to bleomycin administration, all animals were weighed and distributed into groups with 10 mice each (Table 18) such that each group of animals contained animals of similar body weights.\nOn day 0, animals were treated with 1.5 U/kg bleomycin (Blenoxane catalog number NDC 61703-323-22, Hospira Pharmaceutical) intratracheally, except Group 1, which was administered normal saline via oropharyngeal route to serve as the healthy naïve control group. Prophylactic treatment was administered from one day prior to bleomycin administration to day 21 post bleomycin administration. On Day 21, only the morning dose was administered. Animals were harvested on day 21 and lung weights were measured. Body weights of all mice was recorded at least three times a week beginning on Day −2 and ending on the day of harvest, Day 21. Pirfenidone was used as positive control compound, as it is an FDA-approved drug for the treatment of idiopathic pulmonary fibrosis (IPF) in humans. All compounds were prepared in 10% Tween-20 in water; a homogenous suspension was formulated using a magnetic stir bar.\nAt the end of the study, total lung tissues were weighed and fixed for histological examination, which was conducted by a trained pathologist blinded to the treatment groups. Specifically, whole lungs from each mouse were paraffin-embedded in a single block. Two slides from each block were sectioned to the depth of the mainstem bronchi (near the center of each lobe) and stained with either hematoxylin and eosin (H&E) or Masson's trichrome (MT). Glass slides were evaluated using light microscopy by a board-certified veterinary pathologist. Lung sections were scored according to the methods described below, evaluating five randomly chosen fields in each tissue. Fixed lungs were sectioned, and consecutive tissue sections were stained with H&E or MT. Various pathological scoring parameters were used to determine the average Ashcroft score, as well as average inflammation and collagen deposition indicating fibrosis.\nParameter of scoring formalin fixed lung sections:\nModified Ashcroft Score: H&E-stained lung sections were scored according to the modified Ashcroft scale. Scores for five representative 200× microscopic fields per sample were averaged to obtain a mean score for each animal. […]"}, "4T1-luc tumors": {"tested_on": "4T1-luc tumors", "test": "4T1 syngeneic TNBC model", "format": "in vivo, mouse", "experimental": "Tumor measurements were performed via digital calipers.\nThe vehicle for anti-PD-1 inhibitor was PBS.\nThe study dosing phase was 21 days. At the end of the study, animals were injected with luciferin, then sacrificed. Ex vivo imaging of the lung and liver tissue was performed to assess metastasis."}, "[4]": {"experimental": "Female, athymic nude mice (aged 6-8 weeks) were randomized to one of 12 study arms (n=3 per arm) (Table 16) and weighed prior to dosing. Mice were dosed via oral gavage either once daily (QD), or bi-daily (BID) for five days. […] The vehicle for PF-06952229 (PF) was 10% DMSO, 40% PEG300, 5% tween-80, 45% saline. For the vehicle alone group in this study, the PF-06952229 vehicle was used. At the end of each day for 10 days, mice were weighed, and symptoms of toxicity (if present) were recorded. A qualitative determination of overall toxicity was made based on the number and severity of symptoms for each cohort. The safety margin was determined at the end of day 10 based on the following equation: (maximum tolerated dose)/(minimum effective dose)."}, "EMT6 tumors [5]": {"tested_on": "EMT6 tumors", "test": "EMT6 syngeneic TNBC model", "quoted_text": "The objective of this study was to evaluate preclinically the in vivo therapeutic efficacy of combining EX-11 with anti-PD-L1 and/or anti-PD-1 therapy for the treatment of EMT6 tumors orthotopically implanted in the mammary fat pad of female Balb/C mice.\nBalb/C mice (aged 7-9 weeks) were inoculated orthotopically in the right mammary fat pad with EMT6 breast cancer cells (2.5×10^5) in 0.1 ml of PBS. Tumor measurements were performed via digital calipers. Once the mean tumor size reached approximately 85 mm^3 (day 11), 120 mice were randomized to 8 treatment arms (15 mice per arm).\nThe anti-PD-L1 inhibitor used in this study was a product of BioXcell (Cat #: BE0101, Clone #: 10F.9G2). The vehicle for the anti-PD-L1 inhibitor was PBS. The anti-PD-1 inhibitor used in this study was a product of BioXcell (Cat #: BE0146, Clone #: RMP1-14). The vehicle for the anti-PD-1 inhibitor was PBS. These inhibitors were injected intraperitoneally (i.p.), bi-weekly (BIW) for 3 weeks. The vehicle for EX-11 was NMP (10%)+20% Solutol in WFI (Water for Injection) (90%). The vehicle used for EX-11 was also used for the “Vehicle” arm of the study. EX-11 and the vehicle were delivered via oral gavage (p.o.), bi-daily (BID) for 21 days.\nBody weights and tumor volumes were measured twice per week. Tumor volumes were measured in two dimensions using a caliper, and the volume was expressed in mm^3 using the formula: V=(L×W×W)/2, where V is tumor volume, L is tumor length (the longest tumor dimension) and W is tumor width (the longest tumor dimension perpendicular to L). Tumor Growth Inhibition (TGI) reported was TGI at the final study day, and is expressed as Mean % Δ Inhibition and was calculated using the following formula: [(C−C0)−(T−T0)/(C−C0)]*100%, where C refers to the tumor volume of the vehicle on the final study day, C0 to the tumor volume of the vehicle on the first day of dosing, T to the tumor volume of the treatment on a specific day of dosing and T0 to the tumor volume of the treatment group on the first day of dosing.\nThe first phase of the study was the dosing phase and was terminated at day 21, where 3 animals were sacrificed, and plasma and tumor samples were collected for biomarker analysis. The remaining 12 animals were monitored without dosing to determine mean survival."}, "[6]": {"conditions": "EX-11 at 75 mg/kg PO BID x 21 days"}, "[7]": {"conditions": "EX-11 at 150 mg/kg PO BID x 21 days"}},
  "data": [
    {"smiles": "Cc1cccc2c(Nc3ccnc(Nc4cccc(N5CCOCC5)c4)n3)cnnc12", "note": "[EX-11, N4-(8-methylcinnolin-4-yl)-N2-(3-morpholinophenyl)pyrimidine-2,4-diamine]", "values": [
      {"measurement": "tumor volume compared to vehicle", "setting": "EMT6 tumors [1]", "result": "did not show efficacy compared to vehicle"},
      {"measurement": "antigen presentation pathway (APP) in tumors", "setting": "[2]", "result": "upregulates the APP in tumors"},
      {"measurement": "body weight loss", "setting": "[3]; 75 mg/kg twice a day", "result": "No severe weight loss of over 5-10%"},
      {"measurement": "average Ashcroft score", "setting": "[3]; H&E, vs bleomycin/vehicle", "result": "highly statistically significant reduction in the average score"},
      {"measurement": "average lung inflammation score", "setting": "[3]; H&E, vs bleomycin/vehicle", "result": "highly statistically significant reduction in the average score"},
      {"measurement": "average lung fibrosis/collagen deposition score", "setting": "[3]; Masson's trichrome, vs bleomycin/vehicle", "result": "highly statistically significant reduction in the average score"},
      {"measurement": "lung weight normalized to total animal weight (lung weight index)", "setting": "[3]; day 21, vs bleomycin/vehicle", "result": "highly statistically significant"},
      {"measurement": "total lung weight", "setting": "[3]; day 21, vs bleomycin/vehicle", "result": "significant decrease in lung weight"},
      {"measurement": "tumor growth inhibition (TGI) compared to vehicle", "setting": "4T1-luc tumors; [6]", "result": "did not result in significant TGI"},
      {"measurement": "tumor growth inhibition (TGI) compared to vehicle", "setting": "4T1-luc tumors; [7]", "result": 38, "unit": "%"},
      {"measurement": "ex vivo luminescence of liver (metastasis) compared to vehicle", "setting": "4T1-luc tumors; EX-11 at 150 mg/kg where given", "result": "stronger reduction in luminescence"},
      {"measurement": "minimum effective dose", "setting": "[4]; BID, based on prior studies with EX-11", "result": 150, "unit": "mg/kg"},
      {"measurement": "safety margin (maximum tolerated dose)/(minimum effective dose)", "setting": "[4]; female, athymic nude, mouse, in vivo, 10 days", "result": "≥ 6.7", "unit": "fold"},
      {"measurement": "tumor growth inhibition (TGI) compared to vehicle", "setting": "EMT6 tumors [5]; [6]", "result": "did not result in significant TGI"},
      {"measurement": "tumor growth inhibition (TGI) compared to vehicle", "setting": "EMT6 tumors [5]; [7]", "result": 37, "unit": "%"},
      {"measurement": "Mean survival", "setting": "EMT6 tumors [5]; EX-11 at 150 mpk where given", "result": 25, "unit": "days"},
      {"measurement": "tumor pliability", "setting": "EMT6 tumors [5]; all groups receiving EX-11 vs vehicle or checkpoint antibody single agent", "result": "substantially more pliable"}
    ]}
  ]
}
